In patent US8623912B2, “Fostriecin derivatives and the pharmaceutical uses thereof” (priority 2008, dated 2014):
Read-outs that look alike come from different tables or passages of the source.

How the values were obtained:
[1] = test system: HL60 (human leukemia); experiment: Celltiter 96 cell proliferation assay (modified MTT method), HL60; assay type: cell-based; details: read-out: IC50 HL60 (human leukemia)
Method: (§1) The anti-tumor activities of the compounds of thiophosphorylated FST (A) and methyl phosphorylated FST (B) of the present invention to various tumor cell lines of HL-60, CCRD-CEM and NCI-H460 were determined by Celltiter 96 cell proliferation assay kit (modified MTT method) manufactured by Promega company. Onto a 96-well plate, total volume 50 ul/well was added with about 5-7.5×10^3 cells/well, and cultured for 24 hours, followed by addition of 50 ul of the compounds (0.001 nM˜1000 nM) to each well, and cultured for 72 hours. Subsequently, 15 ul of MTT staining solution was added to the well, temperature was kept for 4 hours, the thus formed precipitate was then dissolved with 100 ul lysis buffe/stop solution. After 1 hour, the content in the well was mixed homogeneously with a shaker, and the abosorption value (OD 570 nm) of each well was measured by enzyme-labeled instrument (Molecular Devices). The data was analyzed with Kaleida Graph Program, and the IC50 value (the concentration of the compound at which the growth of 50% of the cell is inhibited) was calculated.

[2] = test system: NCI-H460 (human Lung Cancer); experiment: Celltiter 96 cell proliferation assay (modified MTT method), NCI-H460; assay type: cell-based; details: read-out: IC50 NCI-H460 (human Lung Cancer)
Method: as §1

[3] = test system: CCRF-CEM (human leukemia); experiment: Celltiter 96 cell proliferation assay (modified MTT method), CCRF-CEM; assay type: cell-based; details: read-out: IC50 CCRF-CEM (human leukemia)
Method: as §1

[4] = target: T1, PP4 (Homo sapiens, UniProt P60510); details: cited from earlier work
T1 sequence (P60510 1-307): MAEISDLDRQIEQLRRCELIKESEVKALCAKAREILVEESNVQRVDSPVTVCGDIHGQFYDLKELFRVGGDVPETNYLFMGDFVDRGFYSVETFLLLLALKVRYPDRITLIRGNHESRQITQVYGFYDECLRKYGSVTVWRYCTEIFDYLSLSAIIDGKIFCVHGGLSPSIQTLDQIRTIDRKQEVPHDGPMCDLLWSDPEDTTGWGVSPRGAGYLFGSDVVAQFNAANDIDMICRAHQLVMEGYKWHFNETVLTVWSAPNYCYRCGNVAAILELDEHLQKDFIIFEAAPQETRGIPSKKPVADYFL

[5] = target: protein phophatase PP2A (Homo sapiens, UniProt P67775); details: cited from earlier work
[6] = test system: alkaline phosphatase; assay type: in vitro ADME; details: FIG. 2; for stability under the action of alkaline phosphatase: 75 mM Tris Buffer pH 8.3, 5 mM MgCl2, 37° C., 2-5 hours; for formation of dephosphorylated FST under alkaline phosphatase: conditions of Example 1
Method: Reaction condidtions: FST was dissolved in a solution of 75 mM Tris Buffer (pH 8.3) and 5 mM MgCl2 to obtain a 20 mM FST solution, to each milligram of Fostriecin was added 1 to 1.5 units of alkaline phosphatase, enzymolysis was performed at 37° C. for 2-5 hours.
Thiophosphorylated FST(A) and methyl phosphorylated FST(B) were subjected to hydrolysis of alkaline phosphatase under the reaction condidtions as described in Example 1.

[7] = HL-60, 72 hours culture with compound, MTT, OD 570 nm
[8] = NCI-H460, 72 hours culture with compound, MTT, OD 570 nm
[9] = 72 hours culture with compound, MTT, OD 570 nm

protein phophatase PP2A, sequence (P67775 whole entry): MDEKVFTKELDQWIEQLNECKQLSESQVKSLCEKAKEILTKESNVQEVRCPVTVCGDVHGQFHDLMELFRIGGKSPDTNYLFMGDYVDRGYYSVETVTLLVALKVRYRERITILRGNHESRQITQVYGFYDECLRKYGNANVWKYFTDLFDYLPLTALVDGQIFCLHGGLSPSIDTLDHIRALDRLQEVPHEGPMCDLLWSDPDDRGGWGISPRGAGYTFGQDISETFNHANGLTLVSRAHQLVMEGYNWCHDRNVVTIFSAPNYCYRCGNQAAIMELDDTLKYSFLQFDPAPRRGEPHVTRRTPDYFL

SMILES	IC50 [1, 7] [µM]	IC50 [2, 8] [µM]	IC50 [3, 9] [µM]	IC50 [4] [nM]	IC50 [5] [nM]	stability under the action of alkaline phosphatase [6]	formation of dephosphorylated FST under alkaline phosphatase [6]	IC50 ([1]; HL-60, 72 h) [µM]	IC50 ([2]; NCI-H460, 72 h) [µM]	IC50 ([3]; 72 h) [µM]
CC(O)(C=CC1CC=CC(=O)O1)C(CC(O)C=CC=CC=CCO)OP(=O)(O)O (stereo not drawn) [FST, Fostriecin]	12	14.5	10	3	1.5					
C[C@@](O)(/C=C/[C@H]1CC=CC(=O)O1)C(C[C@@H](O)\C=C/C=C\C=C\CO)OCP(=O)(O)O (stereo partly drawn) [B]	12.5	16.3	14			relatively stable	no dephosphorylated FST was formed			
C[C@@](O)(/C=C/C1CC=CC(=O)O1)C(C[C@@H](O)\C=C/C=C\C=C\CO)OP(O)(O)=S (stereo partly drawn) [A]						relatively stable	no dephosphorylated FST was formed	10.5	13.2	9.6
